We go through one compound from patent US6337130B1, “Acid-triggered release microcapsules” (Zeneca Limited, priority 1998, dated 2002).

A short description of the series: In vitro release rate evaluation: evaporative weight loss of butylate from microcapsules under vacuum (Cahn RH electrobalance). The series is classed as physicochemical. The note with it: 40° C. The protocol:
This composition was tested in vitro for release rate in the presence of acid as follows: 5.0 grams of formulation were diluted with 25.0 grams of water. Two 1.5 gram aliquots were removed, vacuum filtered onto 0.22 μm filter paper, and placed in a jar (to reduce volatilization of butylate) until the release rate measurement was performed. The remainder of the solution was treated with a concentrated solution of p-toluenesulfonic acid to pH 2.02. The acid treated solution was rolled for 10 minutes after which several 1.5 gram aliquots of the acid treated solution were removed, vacuum filtered onto 0.22 μm filter paper, and placed in a jar (to reduce volatilization butylate) until the release rate measurement was performed.
Release rate studies were conducted employing a Cahn RH electrobalance to monitor the rate of evaporative weight loss of butylate (a model compound with a high vapor pressure) from microcapsules under vacuum. The sample (on the filter paper) was placed on the sample pan of the electrobalance and allowed to equilibrate at 40° C. for 10-15 minutes in the sealed system prior to placing under vacuum. The weight loss, measured with the electrobalance enclosed under vacuum, was recorded on a chart recorder.

Each structure is given as a SMILES string.

As for `CCSC(=O)N(CC(C)C)CC(C)C` [butylate, S-ethyl diisobutyl thiocarbamate], the “release rate of non-encapsulated butylate” value is “The release rate of non-encapsulated butylate was determined to be about 17-19 mg/min”.
